The record followed here is ChEMBL document CHEMBL1201862, “PubChem BioAssay data set” (2004).

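Five compound concentrations were applied to cells in 96-well plates for 48 hours; endpoints were derived by simple linear interpolation of the resulting dose-response curve. GI50 = concentration required for 50% inhibition of growth.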 Activity calls are given as the source filed them. Rule as the data show it: active = GI50 up to about 1.1 µM and inactive = higher.

Among the test systems are 786-0; A498; CAKI-1; CCRF-CEM; HL-60; K562; MCF7; MDA-MB-435; MOLT-4; NCI-H23; NCI-H522; OVCAR-4; OVCAR-5; OVCAR-8; SF-268; SF-539; SK-MEL-28; SNB-75; HCT-116.
Assay in all cases: NCI-60 cell line screen, 48 h

`CC(=O)OC12c3ccccc3-c3ccccc3C1C1C(=O)OC(=O)C12` (stereo unspecified): the GI50 in the test with 786-0, in the test with A498, in the test on CAKI-1, in the test on CCRF-CEM, with HL-60 and in the test with K562 was > 10 µM (inactive) in each case. Besides, the GI50 with MCF7, in the test with MDA-MB-435, in the test on MOLT-4, in the test with NCI-H23, in the test with NCI-H522 and in the test on OVCAR-4 was > 10 µM (inactive) throughout. The GI50 in the test on OVCAR-5, with OVCAR-8, in the test with SF-268, in the test on SF-539, with SK-MEL-28 and in the test with SNB-75 was > 10 µM (inactive) throughout.

For the compound `CCOP(=O)(OCC)C1(O)CC(n2cc(C)c(=O)[nH]c2=O)OC1CO` (stereo unspecified), the GI50 in the test with 786-0, in the test with A498, with CAKI-1, in the test on HCT-116, with HL-60 and in the test with K562 was > 100 µM (inactive) in each case. Also, the GI50 with MCF7, in the test with MDA-MB-435, in the test on NCI-H23, with NCI-H522, with OVCAR-4 and in the test with OVCAR-5 was > 100 µM (inactive) in each case. Further, the GI50 with OVCAR-8, with SF-268, in the test on SF-539, in the test on SK-MEL-28 and in the test on SNB-75 was > 100 µM (inactive) each time.

Take `O=C1CCc2ccccc2O1` [DIHYDROCOUMARIN]: the GI50 in the test on 786-0, in the test with A498, in the test with CAKI-1, with CCRF-CEM, in the test with HCT-116 and in the test on HL-60 was > 100 µM (inactive) throughout. The GI50 with K562, in the test on MCF7, with MDA-MB-435, in the test with MOLT-4, with NCI-H23 and in the test on NCI-H522 was > 100 µM (inactive) each time. The GI50 in the test on OVCAR-4, in the test with OVCAR-5, in the test with OVCAR-8, in the test with SF-268, in the test with SK-MEL-28 and in the test on SNB-75 was > 100 µM (inactive) throughout.

Consider `O=C1CSC(c2ccccc2O)N1c1ccc2c(c1)Oc1c(Cl)c3c(c(Cl)c1=N2)Oc1cc(N2C(=O)CSC2c2ccccc2O)ccc1N=3` (stereo unspecified), for which the GI50 is 40.1 µM (inactive) in the test with 786-0; > 100 µM (inactive) with A498; > 100 µM (inactive) in the test with CAKI-1; 18.1 µM (inactive) in the test with CCRF-CEM; 30.6 µM (inactive) in the test on HCT-116; 0.664 µM (active) in the test on HL-60. Further, the GI50 is 13.2 µM (inactive) in the test on K562; 34 µM (inactive) in the test with MCF7; 29.1 µM (inactive) in the test with MDA-MB-435; 2.55 µM (inactive) in the test with MOLT-4; 58.3 µM (inactive) with NCI-H23; 20.6 µM (inactive) in the test on NCI-H522. In addition, the GI50 with OVCAR-4 was 64.7 µM (inactive); in the test on OVCAR-5 it was > 100 µM (inactive); with OVCAR-8 it was 29.4 µM (inactive); with SF-268, 32.7 µM (inactive); in the test on SF-539, 37.9 µM (inactive); in the test with SK-MEL-28, 81.5 µM (inactive).
